According to BindingDB's records for doi:10.7270/Q2251GJ9 (The Scripps Research Institute Molecular Screening Center, 2007):
Where a name gives a salt, the structure may show the parent alone.

Target: Sphingosine 1-phosphate receptor 1 (Homo sapiens, UniProt P21453)
Experiment: direct activation of human S1P1 – cell-based, agonist mode, 60K MLSMR set, dose response (AID 468)
[1] = inactive by the depositor's call

Chain of Sphingosine 1-phosphate receptor 1 (P21453 whole entry): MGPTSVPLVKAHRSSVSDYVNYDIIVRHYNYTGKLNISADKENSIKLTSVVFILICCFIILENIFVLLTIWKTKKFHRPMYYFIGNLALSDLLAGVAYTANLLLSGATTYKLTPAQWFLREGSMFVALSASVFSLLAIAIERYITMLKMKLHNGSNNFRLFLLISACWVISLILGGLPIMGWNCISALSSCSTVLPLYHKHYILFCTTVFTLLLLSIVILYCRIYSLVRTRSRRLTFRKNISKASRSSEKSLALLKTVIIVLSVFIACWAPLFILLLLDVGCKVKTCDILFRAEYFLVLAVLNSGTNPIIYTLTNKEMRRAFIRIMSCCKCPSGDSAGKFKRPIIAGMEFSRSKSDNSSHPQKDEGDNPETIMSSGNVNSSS

| SMILES | EC50 | EC50 [1] |
| --- | --- | --- |
| COc1ccc(-c2nc(-c3cccc(C)c3)no2)cc1OC [5-(3,4-dimethoxyphenyl)-3-(3-methylphenyl)-1,2,4-oxadiazole] | 1.48 µM |  |
| Cc1ccc(O)c(NC(=O)CCC2CCCCC2)c1 [3-cyclohexyl-N-(2-hydroxy-5-methyl-phenyl)propionamide] | > 95 µM |  |
| Clc1ccc(OCc2nnc(SCc3nc4ccccc4[nH]3)n2Cc2ccco2)cc1 [2-[[[5-[(4-chlorophenoxy)methyl]-4-(2-furanylmethyl)-1,2,4-triazol-3-yl]thio]methyl]-1H-benzimidazole] | 7.6 µM |  |
| COc1ccccc1-c1nc(-c2ccc(Br)cc2)no1 [3-(4-bromophenyl)-5-(2-methoxyphenyl)-1,2,4-oxadiazole] |  | 12 µM |
| CC1CCc2nc(NC(=O)CSc3nc4ccccc4o3)sc2C1 (centres undefined) [2-(1,3-benzoxazol-2-ylsulfanyl)-N-(6-methyl-4,5,6,7-tetrahydro-1,3-benzothiazol-2-yl)acetamide] |  | 57.8 µM |
| Fc1ccc(COc2ccc(C=Nn3cnnc3)cc2)cc1 [1-[4-[(4-fluorophenyl)methoxy]phenyl]-N-(1,2,4-triazol-4-yl)methanimine] | 8.28 µM |  |
| C=CS(=O)(=O)c1ccc(Oc2ccc(S(=O)(=O)C=C)cc2)cc1 [1-ethenylsulfonyl-4-(4-ethenylsulfonylphenoxy)benzene] | 2.74 µM |  |
| c1ccc(N2CCN(Cc3ccnc4ccccc34)CC2)cc1 [4-[(4-phenyl-1-piperazinyl)methyl]quinoline] | 9.24 µM |  |
| O=C(CSc1nnc(-c2c[nH]c3ccccc23)o1)N1c2ccccc2CCc2ccccc21 | 7.07 µM |  |
| Cc1nn(Cc2ccc(Cl)c(Cl)c2)c(C)c1NC(=O)c1cc(C2CC2)on1 [5-cyclopropyl-N-[1-(3,4-dichlorobenzyl)-3,5-dimethyl-pyrazol-4-yl]isoxazole-3-carboxamide] |  | 10.6 µM |
| O=C(NCc1ccccc1)N1CCN(c2ccc(Cl)c(Cl)c2)CC1 [4-(3,4-dichlorophenyl)-N-(phenylmethyl)-1-piperazinecarboxamide] | 7.15 µM |  |
| CCOc1cc(-c2noc(-c3cccnc3)n2)ccc1OC [3-(3-ethoxy-4-methoxy-phenyl)-5-(3-pyridyl)-1,2,4-oxadiazole] |  | 18.7 µM |
| O=C(CSc1nnc(-c2c[nH]c3ccccc23)o1)N(Cc1ccccc1)c1ccc(F)cc1 | 1.02 µM |  |
| c1ccc(CSc2nnc(-c3c[nH]c4ccccc34)o2)cc1 | 1.95 µM |  |
| Cc1cc(C(=O)CSc2nnc(-c3cccnc3)n2-c2ccccc2F)c(C)n1C [SMR000064090] | 0.817 µM |  |
| O=C(c1ccccc1)C(CCC(CN1CCOCC1)C(=O)c1ccccc1)CN1CCOCC1 (centres undefined) [2,5-bis(4-morpholinylmethyl)-1,6-diphenylhexane-1,6-dione;hydrochloride] | 4.8 µM |  |
| CCOc1cc(C2NCc3ccccc3-n3cccc32)ccc1O (centres undefined) [4-(5,6-dihydro-4H-pyrrolo[1,2-a][1,4]benzodiazepin-4-yl)-2-ethoxy-phenol;hydrochloride] | 16.1 µM |  |
| CCC1CCCCN1C(=O)CSc1nnc(-c2c[nH]c3ccccc23)o1 (centres undefined) | 5.9 µM |  |
| Cc1ccc(-n2c(C)cc(C(=O)COC(=O)c3c(C)noc3C)c2C)cc1 [3,5-dimethyl-4-isoxazolecarboxylic acid [2-[2,5-dimethyl-1-(4-methylphenyl)-3-pyrrolyl]-2-oxoethyl] ester] | 8.31 µM |  |
| Cc1ccccc1-n1c(SCC(=O)c2cc(C)n(C)c2C)nnc1-c1ccncc1 [2-[[4-(2-methylphenyl)-5-pyridin-4-yl-1,2,4-triazol-3-yl]sulfanyl]-1-(1,2,5-trimethylpyrrol-3-yl)ethanone] | 10 µM |  |

| SMILES | EC50 | EC50 [1] |
| --- | --- | --- |
| CCC(C)OC(=O)c1[nH]c2c(c1C)C(=O)CC(c1ccc(N(C)C)cc1)C2 (centres undefined) [MLS000116530] |  | 18.7 µM |
| CCN(CC)C(=O)CS/C(=N/C#N)Nc1ccccc1F [2-[[N-cyano-N'-(2-fluorophenyl)amidino]thio]-N,N-diethyl-acetamide] | > 95 µM |  |
| CC(C)c1ccc2oc(-c3cc(N)ccc3O)nc2c1 [(6E)-4-amino-6-(5-isopropyl-3H-1,3-benzoxazol-2-ylidene)cyclohexa-2,4-dien-1-one] | 9.37 µM |  |
| CCn1nc(-c2cccs2)nc2c(=O)n(C)c(=O)nc1-2 [1-ethyl-6-methyl-3-thiophen-2-yl-pyrimido[5,4-e][1,2,4]triazine-5,7-dione] | > 10 µM |  |
| Cc1cc(C(=O)N2CCN(C(c3ccccc3)c3ccccc3)CC2)no1 [(4-benzhydrylpiperazin-1-yl)-(5-methyl-1,2-oxazol-3-yl)methanone] |  | 25.5 µM |
| CCC(NCc1ccc2c(c1)OCO2)=C1C(=O)NC(=O)N(C2CCCCC2)C1=O [(5E)-5-[1-(1,3-benzodioxol-5-ylmethylamino)propylidene]-1-cyclohexyl-1,3-diazinane-2,4,6-trione] | 6.81 µM |  |
| CC(=O)Nc1ccc(S(=O)(=O)N2CCN(CCCOc3cc(C)ccc3C)CC2)cc1 [MLS000050317] |  | 15.2 µM |
| CC(C)Cc1cc(C(=O)Nc2sc3c(c2C#N)CCCC3)no1 [MLS000116410] | > 10 µM |  |
| Cc1[nH]nc2c1C1(C(=O)N(Cc3ccc(Cl)cc3)c3ccccc31)C(C#N)C(=N)O2 (centres undefined) [6-amino-1'-[(4-chlorophenyl)methyl]-3-methyl-2'-oxo-5-spiro[2H-pyrano[2,3-c]pyrazole-4,3'-indole]carbonitrile] | 58 µM |  |
| O=S1(=O)Nc2c(ccc3cccnc23)-c2ccccc21 [5H-quinolino[8,7-c][1,2]benzothiazine 6,6-dioxide] | 3.95 µM |  |
| CCCC(=O)N1CCN(c2ccc(NC(=O)c3cc4ccccc4o3)cc2Cl)CC1 [MLS000096729] | 8.85 µM |  |
| Oc1ccc(-c2nc(-c3ccc(O)c(O)c3)cs2)cc1 | 12 µM |  |
| O=C(CCc1nc(-c2ccccc2F)no1)Nc1ccc(Oc2ccccc2)cc1 [3-[3-(2-fluorophenyl)-1,2,4-oxadiazol-5-yl]-N-(4-phenoxyphenyl)propanamide] | 4.94 µM |  |
| CCOc1ccc(S(=O)(=O)N2CCN(c3ccc(C)cc3C)CC2)cc1 [1-(2,4-dimethylphenyl)-4-(4-ethoxyphenyl)sulfonyl-piperazine] | > 10 µM |  |
| CCOC(=O)N1CCN(C(=O)C2CCN(c3ncnc4c3sc3cccc(F)c34)CC2)CC1 [4-[1-(9-fluorobenzothiopheno[3,2-d]pyrimidin-4-yl)isonipecotoyl]piperazine-1-carboxylic acid ethyl ester] | 5.92 µM |  |
| CN1c2ccccc2C(C)(C)C12C=Cc1cc(O)ccc1O2 (centres undefined) [1',3',3'-trimethyl-6-spiro[1-benzopyran-2,2'-indole]ol] |  | 13.1 µM |
| COc1ccc2c(c1)-c1nc(NC(=O)c3cccs3)sc1CC2 [N-(8-methoxy-4,5-dihydrobenzo[e][1,3]benzothiazol-2-yl)-2-thiophenecarboxamide] |  | 17.3 µM |
| COc1ccc(-c2cc(C(=O)NC3CCCC3)no2)cc1OC [MLS000087117] |  | 15.8 µM |
| COc1cccc(-c2cc(C(=O)Nc3ccccc3SC)no2)c1 [5-(3-methoxyphenyl)-N-(2-methylsulfanylphenyl)-1,2-oxazole-3-carboxamide] |  | 18 µM |
| O=S(=O)(NCc1cn2ccsc2n1)c1ccc(Oc2ccccc2)cc1 [MLS000094195] | 6.07 µM |  |

| SMILES | EC50 | EC50 [1] |
| --- | --- | --- |
| COc1ccc(-n2c(C)cc(C(=O)COC(=O)Cn3cnc4ccccc43)c2C)cc1 [2-(1-benzimidazolyl)acetic acid [2-[1-(4-methoxyphenyl)-2,5-dimethyl-3-pyrrolyl]-2-oxoethyl] ester] |  | 10.3 µM |
| Oc1c(Cl)cc(Cl)cc1Sc1cc(Cl)cc(Cl)c1O | 1.02 µM |  |
| COC(=O)c1sc(NC(=O)c2ccc(OC)cc2OC)nc1C [2-[(2,4-dimethoxybenzoyl)amino]-4-methyl-thiazole-5-carboxylic acid methyl ester] | 9.63 µM |  |
| Cc1nnc(SCC(=O)N2CCC(c3noc4ccc(F)cc34)CC2)s1 [1-[4-(5-fluoranyl-1,2-benzoxazol-3-yl)piperidin-1-yl]-2-[(5-methyl-1,3,4-thiadiazol-2-yl)sulfanyl]ethanone] | 4.27 µM |  |
| CCOc1ccc(-c2nc(-c3ccncc3)no2)cc1OCC [4-[5-(3,4-diethoxyphenyl)-1,2,4-oxadiazol-3-yl]pyridine] | 0.207 µM |  |
| Cc1nc2ccccc2c2oc(C(=O)NCC3COc4ccccc4O3)cc12 (centres undefined) [MLS000118430] | 8.06 µM |  |
| CC(C)[C@H](NC(=O)OC(C)(C)C)c1nnc(SCC(=O)Nc2ccc(Br)cc2)o1 [MLS000040800] |  | 14.7 µM |
| Cc1cc(C(=O)CSc2nnnn2-c2ccc(O)cc2)c(C)n1Cc1ccc2c(c1)OCO2 [1-(2,5-dimethyl-1-piperonyl-pyrrol-3-yl)-2-[[1-(4-hydroxyphenyl)tetrazol-5-yl]thio]ethanone] | 5.91 µM |  |
| CCN(CC)C(=O)Oc1ccc2c(=O)c(-c3ccccc3)coc2c1 [(4-oxidanylidene-3-phenyl-chromen-7-yl) N,N-diethylcarbamate] |  | 37.2 µM |
| CC1Cc2ccccc2N1c1ncnc2nc[nH]c12 (centres undefined) [SMR000017649] | 3.78 µM |  |
| COC(=O)CS(=O)(=O)c1nnc([C@H](Cc2ccccc2)NC(=O)OC(C)(C)C)o1 [SMR000046685] | 6.99 µM |  |
| COc1cc(CSc2nnnn2-c2ccc(C)cc2)cc(OC)c1OC [1-(4-methylphenyl)-5-[(3,4,5-trimethoxybenzyl)thio]-1H-tetrazole] | 2.26 µM |  |
| Nc1ccc(N2CCOCC2)c(Cl)c1 [(3-chloro-4-morpholino-phenyl)amine] | 1.18 µM |  |
| COc1ccc(S(=O)(=O)N2CCN(c3ccc(C)cc3C)CC2)cc1OC [1-(3,4-dimethoxyphenyl)sulfonyl-4-(2,4-dimethylphenyl)piperazine] | 6.58 µM |  |
| CCOC(=O)C1C(=O)C=C(c2ccc(OC)cc2)CC1c1ccco1 (centres undefined) [6-(2-furanyl)-4-(4-methoxyphenyl)-2-oxo-1-cyclohex-3-enecarboxylic acid ethyl ester] | 3.51 µM |  |
| COc1ccc(OCCCSc2ncccn2)cc1 [2-[3-(4-methoxyphenoxy)propylsulfanyl]pyrimidine] |  | 57.3 µM |
| Cc1nn(C(=O)c2cccs2)c(N)c1-c1ccccc1 [(5-amino-3-methyl-4-phenyl-1-pyrazolyl)-thiophen-2-ylmethanone] | 7.24 µM |  |
| Clc1ccc(-c2nc3nc4ccccc4nc3n2Cc2ccco2)cc1 [2-(4-chlorophenyl)-3-(2-furanylmethyl)imidazo[4,5-b]quinoxaline] |  | 25.3 µM |
| COc1ccc(-c2nc(-c3ccccc3OC)no2)cc1OC [5-(3,4-dimethoxyphenyl)-3-(2-methoxyphenyl)-1,2,4-oxadiazole] | 0.166 µM |  |
